Experimental data from the NIST ThermoML archive (doi:10.1016/j.jct.2010.12.021).
± gives the expanded uncertainty stated by the source.

Details: for viscosity / mass density: 101.33 kPa, Liquid; for viscosity: Falling or rolling sphere viscometry; for mass density: Vibrating tube method

Structure (SMILES): CCCCCC[n+]1cccc2ccccc21.O=S(=O)([N-]S(=O)(=O)C(F)(F)F)C(F)(F)F [1-hexylquinolinium bis(trifluoromethylsulfonyl)amide]
- viscosity (323.15 K): 100.1 ± 2.5 mPa·s
- mass density (323.15 K): 1365.94 ± 1.7 kg/m3
- viscosity (328.15 K): 77.97 ± 1.4 mPa·s
- mass density (328.15 K): 1361.65 ± 1.7 kg/m3
- viscosity (333.15 K): 61.78 ± 0.76 mPa·s
- mass density (333.15 K): 1357.35 ± 1.7 kg/m3
- viscosity (338.15 K): 50.09 ± 0.51 mPa·s
- mass density (338.15 K): 1353.06 ± 1.6 kg/m3
- viscosity (343.15 K): 41.08 ± 0.52 mPa·s
- mass density (343.15 K): 1348.77 ± 1.6 kg/m3
- viscosity (348.15 K): 34.22 ± 0.43 mPa·s
- mass density (348.15 K): 1344.52 ± 1.6 kg/m3
- Normal melting temperature (Crystal, DTA): 44.1 ± 0.39 °C
